Where two headings read alike, the source gives them in different places.
Experiments:
[1] = biological target: T1, recombinant human CYP11B2 (Homo sapiens, UniProt P19099); test: CYP11B2 enzyme assay, enzyme enriched microsomes from V79-4 cells, aldosterone by LC-MS; type: biochemical; settings: for Selectivity: CYP11B1 IC50/CYP11B2 IC50
T1 construct: made in house; host or cells: V79-4 cells (enzyme enriched microsomal fraction of cell lysates)
T1 sequence (P19099 25-503): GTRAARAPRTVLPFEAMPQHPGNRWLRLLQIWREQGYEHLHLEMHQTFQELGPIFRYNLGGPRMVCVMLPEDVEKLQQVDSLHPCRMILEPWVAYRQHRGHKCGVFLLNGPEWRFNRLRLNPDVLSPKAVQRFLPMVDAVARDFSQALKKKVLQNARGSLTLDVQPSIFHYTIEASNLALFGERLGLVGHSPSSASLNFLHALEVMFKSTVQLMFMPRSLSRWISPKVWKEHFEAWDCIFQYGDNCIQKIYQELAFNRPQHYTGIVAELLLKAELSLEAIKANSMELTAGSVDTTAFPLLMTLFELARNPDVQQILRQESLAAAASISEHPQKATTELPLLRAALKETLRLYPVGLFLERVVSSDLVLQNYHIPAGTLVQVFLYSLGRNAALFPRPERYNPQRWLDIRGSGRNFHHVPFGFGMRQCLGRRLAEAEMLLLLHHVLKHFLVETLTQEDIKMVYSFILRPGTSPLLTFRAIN
Method: (§1) An enzyme enriched microsomal fraction was prepared from cellular lysates and subsequently used as the enzyme source for determining inhibitor IC50s. […] Enzyme assays for inhibitor screening employed CYP11B2 and CYP11B1 enzyme enriched microsomes and were run at the Km of the respective substrates. Products of the enzyme reactions, aldosterone for CYP11B2 or cortisol for CYP11B1, were measured by LC-MS. Assays were run under conditions of less than 20% substrate turnover. Inhibitor IC50s were generated by determining the product formation in the absence or presence of inhibitor at various concentrations. In the absence of the test compound, the product formed (Pt) in each data set was defined as 100% activity. In the absence of enzyme, the product formed (Pb) in each data set was defined as 0% activity. The percent activity in the presence of each inhibitor was calculated according to the following equation: % activity=(P−Pb)/(Pt−Pb), where P=the product formed in the presence of the inhibitor.

[2] = Cyno liver microsome stability; type: in vitro ADME, cynomolgus monkey; settings: for Cyno LM Stability: % Compound remaining at 65 min in cyno liver microsomes; for metabolic stability when exposed to cynomolgus monkey liver microsomes: compared with pyridine counterpart Example 76
[3] = biological target: T2, recombinant human CYP11B1 (Homo sapiens, UniProt P15538); test: CYP11B1 enzyme assay, enzyme enriched microsomes from V79-4 cells, cortisol by LC-MS; type: biochemical
T2 construct: made in house; host or cells: V79-4 cells (enzyme enriched microsomal fraction of cell lysates)
T2 sequence (P15538 25-503): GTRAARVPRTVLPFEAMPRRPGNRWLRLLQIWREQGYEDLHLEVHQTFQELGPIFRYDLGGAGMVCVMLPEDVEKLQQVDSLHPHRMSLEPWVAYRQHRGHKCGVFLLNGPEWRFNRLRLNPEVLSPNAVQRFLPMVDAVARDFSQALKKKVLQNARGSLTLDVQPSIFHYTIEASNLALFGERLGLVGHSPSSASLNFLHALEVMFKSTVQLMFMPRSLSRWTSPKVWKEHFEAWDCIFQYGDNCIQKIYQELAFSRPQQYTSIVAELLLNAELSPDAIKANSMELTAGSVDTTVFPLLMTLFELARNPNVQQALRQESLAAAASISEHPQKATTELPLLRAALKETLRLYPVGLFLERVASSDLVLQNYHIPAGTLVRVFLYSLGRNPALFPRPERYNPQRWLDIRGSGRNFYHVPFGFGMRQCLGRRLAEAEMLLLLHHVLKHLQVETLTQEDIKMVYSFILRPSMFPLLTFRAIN
Method: as §1

[4] = Cyno half life after PO dose; set-up: species or system cynomolgus monkeys; settings: cynomolgus monkey; for half-life: in vivo, 1 mg/kg PO dose, read-out: Cyno T½ (converted)
[5] = Rat liver microsome stability; type: in vitro ADME; settings: for Rat LM Stability: % Compound remaining at 65 min in rat liver microsomes
[6] = IC50 ranges, run at Km of 11-deoxycorticosterone, read-out: hCYP11B2 IC50
[7] = Table 3 comparison, read-out: CYP11B2 IC50
[8] = IC50 ranges, run at Km of 11-deoxycortisol, read-out: hCYP11B1 IC50
[9] = Table 3 comparison, read-out: CYP11B1 IC50

In the case of Fc1cc2nc(-c3cncnc3C(F)F)n(C3CC3)c2cc1F [Example 27, 1-Cyclopropyl-2-(4-(difluoromethyl)pyrimidin-5-yl)-5,6-difluoro-1H-benzo[d]imidazole], the IC50 [1, 6] is reported as 0.001 to 0.1 µM, the IC50 [1, 7] is reported as 0.017 µM and the “Cyno LM Stability” value [2] is reported as 106%. For the same molecule, the “metabolic stability when exposed to cynomolgus monkey liver microsomes” value [2] was “much greater metabolic stability”, the IC50 [3, 8] was 1 to 10 µM and the IC50 [3, 9] was 4.72 µM. For the same molecule, the “in vivo half-lives in cynomolgus monkeys” value [4] was “long in vivo half-lives” and the half-life [4] was 16.9 h.
Fc1ccc2nc(-c3cncnc3)n(C3CC3)c2c1 [Example 1, 1-Cyclopropyl-6-fluoro-2-(pyrimidin-5-yl)-1H-benzo[d]imidazole] gave a Selectivity [1] of 134, an IC50 [1, 6] of 0.001 to 0.1 µM and an IC50 [1, 7] of 0.04 µM. The “Cyno LM Stability” value [2] was 70%, the IC50 [3, 8] was 1 to 10 µM and the IC50 [3, 9] was 5.38 µM. The “Rat LM Stability” value [5] was 0%.
For Fc1cc2nc(-c3cncnc3C(F)(F)F)n(C3CC3)c2cc1F [Example 30, 1-Cyclopropyl-5,6-difluoro-2-(4-(trifluoromethyl)pyrimidin-5-yl)-1H-benzo[d]imidazole], the Selectivity [1] was 199, the IC50 [1, 6] was 0.001 to 0.1 µM and the IC50 [1, 7] was 0.032 µM. For the same molecule, the “Cyno LM Stability” value [2] was 99%, the “metabolic stability when exposed to cynomolgus monkey liver microsomes” value [2] was “much greater metabolic stability” and the IC50 [3, 8] was 1 to 10 µM. The IC50 [3, 9] was 6.37 µM, the “in vivo half-lives in cynomolgus monkeys” value [4] was “long in vivo half-lives” and the half-life [4] was 37.5 h. For the same molecule, the “Rat LM Stability” value [5] was 108% and the “metabolic stability when exposed to rat liver microsomes” value ([5]; compared with pyridine counterpart Example 76) was “much greater metabolic stability”.
Work on Cc1ncncc1-c1nc2cc(F)c(F)cc2n1C1CC1 [Example 44, 1-Cyclopropyl-5,6-difluoro-2-(4-methylpyrimidin-5-yl)-1H-benzo[d]imidazole] yielded a Selectivity [1] of 244, an IC50 [1, 6] of 0.001 to 0.1 µM and an IC50 [1, 7] of 0.017 µM. The “Cyno LM Stability” value [2] was 72%, the IC50 [3, 8] was 1 to 10 µM and the IC50 [3, 9] was 4.16 µM. The “Rat LM Stability” value [5] was 96%.
Work on N#Cc1ncncc1-c1nc2cc(F)c(F)cc2n1C1CC1 [Example 46, 5-(1-Cyclopropyl-5,6-difluoro-1H-benzo[d]imidazol-2-yl) pyrimidine-4-carbonitrile] yielded an IC50 [1, 6] of 0.001 to 0.1 µM and an IC50 [3, 8] of 1 to 10 µM.
In the case of CC(C)c1ncncc1-c1nc2ccc(F)cc2n1C1CC1 [Example 13, 1-Cyclopropyl-6-fluoro-2-(4-isopropylpyrimidin-5-yl)-1H-benzo[d]imidazole], the IC50 [1, 6] is reported as 0.001 to 0.1 µM and the IC50 [3, 8] is reported as 1 to 10 µM.
With O=C(O)c1ccc2nc(-c3cncnc3C(F)(F)F)n(C3CC3)c2c1 [Example 70, 1-Cyclopropyl-2-(4-(trifluoromethyl)pyrimidin-5-yl)-1H-benzo[d]imidazole-6-carboxylic acid] the IC50 [1, 6] was > 10 µM and the IC50 [3, 8] was > 10 µM.

From patent publication US11919883B2, “Metalloenzyme inhibitor compounds” (Ji Xing Pharmaceuticals Hong Kong Limited, priority 2016, dated 2024)
